Where a SMILES comes first, the peptide text is derived from it. [ ]: non-standard residue; d: D form. The star is where a group is joined. X1 = NC(=O)CCOCCOCCOCCOCCOCCOCCNC(=O)COCC(=O)NCCCOCCOCCOCCCN*; Nle = CCCC[C@H](N)C(=O)O
Experiment: Pharmacokinetics in rats after intravenous bolus injection (systemic clearance)
Format: in vivo
Details: rat, plasma, 0.2 mg FB/kg, adult male Sprague-Dawley rats, i.v. bolus, dose 0.20 mg FB/kg, read-out: CL (ml/kg/min) Average
Method in brief: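 Adult male Sprague-Dawley rats (3-4, doubly cannulated) given IV jugular bolus at 0.1-1.0 mg/kg; serial carotid blood to K2EDTA plasma, LC/MS/MS quantitation. CL = dose/kg divided by AUC∞ (noncompartmental, trapezoid); mean ± SD.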

For `CCCC[C@H](NC(=O)[C@H](CCC(=O)O)NC(=O)[C@H](CC(=O)O)NC(=O)[C@H](CO)NC(=O)[C@H](Cc1ccccc1)NC(=O)[C@H](CO)NC(=O)CNC(=O)[C@H](CC(=O)O)NC(=O)CNC(=O)[C@@H](N)Cc1c[nH]cn1)C(=O)N[C@H](Cc1ccccc1)C(=O)N[C@H](C(=O)N[C@H](C(=O)N[C@@H](CC(C)C)C(=O)N[C@@H](CC(=O)O)C(=O)N[C@@H](Cc1ccccc1)C(=O)N[C@@H](CC(C)C)C(=O)N[C@@H](C)C(=O)N[C@@H](C)C(=O)N[C@@H](CCCNC(=N)N)C(=O)N[C@@H](CC(=O)O)C(=O)N[C@@H](Cc1ccccc1)C(=O)N[C@H](C(=O)N[C@@H](CC(N)=O)C(=O)N[C@@H](Cc1c[nH]c2ccccc12)C(=O)N[C@@H](CC(C)C)C(=O)N[C@H](C(=O)N[C@@H](CCC(N)=O)C(=O)N[C@H](C(=O)N[C@@H](CCCCN)C(=O)N[C@H](C(=O)N[C@H](C(=O)N[C@@H](CC(=O)O)C(=O)NCCCOCCOCCOCCCNC(=O)COCC(=O)NCCOCCOCCOCCOCCOCCOCCC(N)=O)[C@@H](C)O)[C@@H](C)CC)[C@@H](C)O)[C@@H](C)CC)[C@@H](C)CC)[C@@H](C)CC)[C@@H](C)O` [Compound 61, [Gly2,Nle10,D-Phe11,Phe16] hGLP-2(1-33)-NH—CH2—((CH2)2O)3—(CH2)3—NH—C(O)—CH2—O—CH2—C(O)—NH—((CH2)2O)6—(CH2)2—C(O)—NH2] (H-HGDGSFSDE[Nle][dF]TILDFLAARDFINWLIQTKITD-X1), which clearance is on record?
Its clearance is 0.16 mL/kg/min.

With `CCCC[C@H](NC(=O)[C@H](CCC(=O)O)NC(=O)[C@H](CC(=O)O)NC(=O)[C@H](CO)NC(=O)[C@H](Cc1ccccc1)NC(=O)[C@H](CO)NC(=O)CNC(=O)[C@H](CC(=O)O)NC(=O)CNC(=O)[C@@H](N)Cc1c[nH]cn1)C(=O)N[C@H](Cc1ccccc1)C(=O)N[C@H](C(=O)N[C@H](C(=O)N[C@@H](CC(C)C)C(=O)N[C@@H](CC(=O)O)C(=O)N[C@@H](Cc1ccccc1)C(=O)N[C@@H](CC(C)C)C(=O)N[C@@H](C)C(=O)N[C@@H](C)C(=O)N[C@@H](CCCNC(=N)N)C(=O)N[C@@H](CC(=O)O)C(=O)N[C@@H](Cc1ccccc1)C(=O)N[C@H](C(=O)N[C@@H](CC(N)=O)C(=O)N[C@@H](Cc1c[nH]c2ccccc12)C(=O)N[C@@H](CC(C)C)C(=O)N[C@H](C(=O)N[C@@H](CCC(N)=O)C(=O)N[C@H](C(=O)N[C@@H](CCCCN)C(=O)N[C@H](C(=O)N[C@H](C(=O)N[C@@H](CC(=O)O)C(N)=O)[C@@H](C)O)[C@@H](C)CC)[C@@H](C)O)[C@@H](C)CC)[C@@H](C)CC)[C@@H](C)CC)[C@@H](C)O` [Compound 63, [Gly2,Nle10,D-Phe11,Phe16] hGLP-2(1-33)-NH2] (H-HGDGSFSDE[Nle][dF]TILDFLAARDFINWLIQTKITD-NH2) as the molecule, how does the clearance read?
Its clearance is 0.24 mL/kg/min.

With `CCCC[C@H](NC(=O)[C@H](CCC(=O)O)NC(=O)[C@H](CC(=O)O)NC(=O)[C@H](CO)NC(=O)[C@H](Cc1ccccc1)NC(=O)[C@H](CO)NC(=O)CNC(=O)[C@H](CC(=O)O)NC(=O)CNC(=O)[C@@H](N)Cc1c[nH]cn1)C(=O)N[C@H](Cc1ccccc1)C(=O)N[C@H](C(=O)N[C@H](C(=O)N[C@@H](CC(C)C)C(=O)N[C@@H](CC(=O)O)C(=O)N[C@@H](Cc1ccccc1)C(=O)N[C@@H](CC(C)C)C(=O)N[C@@H](C)C(=O)N[C@@H](C)C(=O)N[C@@H](CCCNC(=N)N)C(=O)N[C@@H](CC(=O)O)C(=O)N[C@@H](Cc1ccccc1)C(=O)N[C@H](C(=O)N[C@@H](CC(N)=O)C(=O)N[C@@H](Cc1c[nH]c2ccccc12)C(=O)N[C@@H](CC(C)C)C(=O)N[C@H](C(=O)N[C@@H](CCC(N)=O)C(=O)N[C@H](C(=O)N[C@@H](CCCCN)C(=O)N[C@H](C(=O)N[C@H](C(=O)N[C@@H](CC(=O)O)C(=O)O)[C@@H](C)O)[C@@H](C)CC)[C@@H](C)O)[C@@H](C)CC)[C@@H](C)CC)[C@@H](C)CC)[C@@H](C)O` [Compound 64, [Gly2,Nle10,D-Phe11,Phe16] hGLP-2(1-33)-OH] (H-HGDGSFSDE[Nle][dF]TILDFLAARDFINWLIQTKITD-OH) as the molecule, how does the clearance read?
The clearance was 0.15 mL/kg/min.
